Substitutions are numbered along the chain they refer to. Names may count otherwise.
B1: PDE3A1-F1004A: RFP-tagged PDE3A1 construct with F1004A substitution in the C-terminus yielding a catalytically inactive, dominant-negative protein (SEQ ID NO:2) (protein, listed as Homo sapiens)
chain: MAVPGDAARVRDKPVHSGVSQAPTAGRDCHHRADPASPRDSGCRGCWGDLVLQPLRSSRKLSSALCAGSLSFLLALLVRLVRGEVGCDLEQCKEAAAAEEEEAAPGAEGGVFPGPRGGAPGGGARLSPWLQPSALLFSLLCAFFWMGLYLLRAGVRLPLAVALLAACCGGEALVQIGLGVGEDHLLSLPAAGVVLSCLAAATWLVLRLRLGVLMIALTSAVRTVSLISLERFKVAWRPYLAYLAGVLGILLARYVEQILPQSAEAAPREHLGSQLIAGTKEDIPVFKRRRRSSSVVSAEMSGCSSKSHRRTSLPCIPREQLMGHSEWDHKRGPRGSQSSGTSITVDIAVMGEAHGLITDLLADPSLPPNVCTSLRAVSNLLSTQLTFQAIHKPRVNPVTSLSENYTCSDSEESSEKDKLAIPKRLRRSLPPGLLRRVSSTWTTTTSATGLPTLEPAPVRRDRSTSIKLQEAPSSSPDSWNNPVMMTLTKSRSFTSSYAISAANHVKAKKQSRPGALAKISPLSSPCSSPLQGTPASSLVSKISAVQFPESADTTAKQSLGSHRALTYTQSAPDLSPQILTPPVICSSCGRPYSQGNPADEPLERSGVATRTPSRTDDTAQVTSDYETNNNSDSSDIVQNEDETECLREPLRKASACSTYAPETMMFLDKPILAPEPLVMDNLDSIMEQLNTWNFPIFDLVENIGRKCGRILSQVSYRLFEDMGLFEAFKIPIREFMNYFHALEIGYRDIPYHNRIHATDVLHAVWYLTTQPIPGLSTVINDHGSTSDSDSDSGFTHGHMGYVFSKTYNVTDDKYGCLSGNIPALELMALYVAAAMHDYDHPGRTNAFLVATSAPQAVLYNDRSVLENHHAAAAWNLFMSRPEYNFLINLDHVEFKHFRFLVIEAILATDLKKHFDFVAKFNGKVNDDVGIDWTNENDRLLVCQMCIKLADINGPAKCKELHLQWTDGIVNEFYEQGDEEASLGLPISPFMDRSAPQLANLQESAISHIVGPLCNSYDSAGLMPGKWVEDSDESGDTDDPEEEEEEAPAPNEEETCENNESPKKKTFKRRKIYCQITQHLLQNHKMWKKVIEEEQRLAGIENQSLDQTPQSHSSEQIQAIKEEEEEKGKPRGEEIPTQKPDQ
modifications: RFP tag; (1)..(1141) conceptual translation of the longest ORF of the PDE3A gene with a mutation at amino acid position 1004 in which phenylalanine is changed to alanine; presence of alanine at amino acid 1004 inactivates phosphodiesterase activity
B2: M3: Flag-tagged rhPDE3A1 phosphorylation site mutant S428A (protein, UniProt Q14432 1-1141, looked up, variant S428A)
cGMP-inhibited 3',5'-cyclic …: B1 chain with S428A, A1004F
modifications: Flag tag
notes: Flag-tagged rhPDE3A1 phosphorylation site mutant S428A
B3: M4: Flag-tagged rhPDE3A1 phosphorylation site mutant S438A (protein, UniProt Q14432 1-1141, looked up, variant S438A)
cGMP-inhibited 3',5'-cyclic …: B1 chain with S438A, A1004F
modifications: Flag tag
notes: Flag-tagged rhPDE3A1 phosphorylation site mutant S438A

Key:
SR vesicles = assay: 45Ca2+ uptake in SR vesicles from human myocardium; assay type: biochemical; conditions: cAMP 3 μM, cilostamide 1 μM; SR fractions
Experimental: FIG. 7 a-f. cAMP, PKA, and PDE3-inhibition increase SERCA2 activity and Ca^2+ uptake. A. After incubation of SR fractions (20 μg) in the absence or presence of the indicated concentrations of ATP and/or cAMP, without or with cilostamide or rolipram, endogenous PLB, phosphorylated PLB, and ρ-actin were detected after SDS-PAGE and immunoblotting. Data are representative of three experiments. In these and other Western blots, PLB is predominantly monomeric, most likely due to the heating of samples, prior to electrophoresis, under reducing conditions (buffer containing β-mercatoethanol, DTT, and SDS). […] PDE activity in human cardiac SR fractions, expressed as specific activity (pmol cAMP hydrolyzed/min/mg). […] PDE3 activity was determined as the cilostamide-sensitive fraction, and PDE4 activity as the rolipram-sensitive fraction. […] D. After incubation of SR fractions without or with the indicated concentrations of cAMP (0-10 μM), ^45Ca^2+ uptake was measured in the presence of 0.5 μM free Ca^2+. […]
Oxalate-dependent Ca^2+ uptake was quantified as described previously (17). […] After washing four times with 4 ml buffer containing 140 mM KCl, 10 mM NaCl, 2 mM MgCl2, 1 mM CaCl2 and 50 mM imidazole-HCl, (pH 7.0), radioactivity retained on the filters was quantified by liquid scintillation counting. Free [Ca^2+] was calculated using a program obtained at http://www.stanford.edu/˜cpatton/webmaxc/webmaxcS.htm.

[1] = tested on: neonatal rat ventricular myocytes; assay: Hypertrophy of neonatal rat ventricular myocytes (PDE3 inhibitor treatment or transfection with dominant-negative constructs, with or without norepinephrine); assay type: cell-based; conditions: for cellular hypertrophy: neonatal rat ventricular myocytes, treatment or transfection alone
Description: FIG. 5. Anti-hypertrophic actions of PDE3A1-selective targeting in neonatal rat ventricular myocytes.
In contrast, expression of the PDE3A1 dominant negative has no pro-hypertrophic effect, and actually blocks the hypertrophic responses to norepinephrine.
In neonatal rat ventricular myocytes, conventional PDE3 inhibition promotes cellular hypertrophy, which may be associated with adverse consequences in heart failure. We questioned what effect PDE3A1-selective inhibition would have. […] The F1004A substitution is a change in the amino acid sequence of PDE3A1 at amino acid position 1004 from a phenylalanine to an alanine. We transfected neonatal rat ventricular myocytes with this dominant-negative construct to competitively block the protein-protein interactions that localize PDE3A1 to specific intracellular microdomains. […] To our knowledge, this is the first direct evidence that conventional PDE3 inhibition and isoform-selective targeting have different effects in cardiac myocytes, and that some of the adverse consequences of nonselective PDE3 inhibition may be averted by isoform-selective targeting involving protein-protein interactions.

PLB = assay: cAMP-dependent phosphorylation of endogenous PLB in human myocardial membranes; assay type: biochemical; conditions: 0.1 μM cAMP; cilostamide 1 μM or rolipram 10 μM; human left ventricular microsomes
Experimental: FIG. 7 a-f. cAMP, PKA, and PDE3-inhibition increase SERCA2 activity and Ca^2+ uptake. A. After incubation of SR fractions (20 μg) in the absence or presence of the indicated concentrations of ATP and/or cAMP, without or with cilostamide or rolipram, endogenous PLB, phosphorylated PLB, and ρ-actin were detected after SDS-PAGE and immunoblotting. Data are representative of three experiments. In these and other Western blots, PLB is predominantly monomeric, most likely due to the heating of samples, prior to electrophoresis, under reducing conditions (buffer containing β-mercatoethanol, DTT, and SDS). B. Bar graph summarizing pSer16PLB/PLB total ratios. *P<0.01 vs. control (n=3 independent experiments). C. PDE activity in human cardiac SR fractions, expressed as specific activity (pmol cAMP hydrolyzed/min/mg). Results are presented as mean+/−SEM (n=3 preparations). PDE3 activity was determined as the cilostamide-sensitive fraction, and PDE4 activity as the rolipram-sensitive fraction. […] D. After incubation of SR fractions without or with the indicated concentrations of cAMP (0-10 μM), ^45Ca^2+ uptake was measured in the presence of 0.5 μM free Ca^2+. Results are presented as % increase due to cAMP, with basal Ca^2+ uptake (9.4+/−0.8 nmol/mg/min, n=3) taken as 100%. […]

rSERCA2 = target: T1, rSERCA2 (Homo sapiens, UniProt P16615); assay: Co-immunoprecipitation of Flag-tagged rhPDE3A variants and rSERCA2 after incubation with or without rPKAc; assay type: binding; conditions: serine-to-alanine mutants of rhPDE3A1, 50 units rPKAc, co-IP
T1 construct: purchased Abnova
T1 sequence (P16615 whole entry): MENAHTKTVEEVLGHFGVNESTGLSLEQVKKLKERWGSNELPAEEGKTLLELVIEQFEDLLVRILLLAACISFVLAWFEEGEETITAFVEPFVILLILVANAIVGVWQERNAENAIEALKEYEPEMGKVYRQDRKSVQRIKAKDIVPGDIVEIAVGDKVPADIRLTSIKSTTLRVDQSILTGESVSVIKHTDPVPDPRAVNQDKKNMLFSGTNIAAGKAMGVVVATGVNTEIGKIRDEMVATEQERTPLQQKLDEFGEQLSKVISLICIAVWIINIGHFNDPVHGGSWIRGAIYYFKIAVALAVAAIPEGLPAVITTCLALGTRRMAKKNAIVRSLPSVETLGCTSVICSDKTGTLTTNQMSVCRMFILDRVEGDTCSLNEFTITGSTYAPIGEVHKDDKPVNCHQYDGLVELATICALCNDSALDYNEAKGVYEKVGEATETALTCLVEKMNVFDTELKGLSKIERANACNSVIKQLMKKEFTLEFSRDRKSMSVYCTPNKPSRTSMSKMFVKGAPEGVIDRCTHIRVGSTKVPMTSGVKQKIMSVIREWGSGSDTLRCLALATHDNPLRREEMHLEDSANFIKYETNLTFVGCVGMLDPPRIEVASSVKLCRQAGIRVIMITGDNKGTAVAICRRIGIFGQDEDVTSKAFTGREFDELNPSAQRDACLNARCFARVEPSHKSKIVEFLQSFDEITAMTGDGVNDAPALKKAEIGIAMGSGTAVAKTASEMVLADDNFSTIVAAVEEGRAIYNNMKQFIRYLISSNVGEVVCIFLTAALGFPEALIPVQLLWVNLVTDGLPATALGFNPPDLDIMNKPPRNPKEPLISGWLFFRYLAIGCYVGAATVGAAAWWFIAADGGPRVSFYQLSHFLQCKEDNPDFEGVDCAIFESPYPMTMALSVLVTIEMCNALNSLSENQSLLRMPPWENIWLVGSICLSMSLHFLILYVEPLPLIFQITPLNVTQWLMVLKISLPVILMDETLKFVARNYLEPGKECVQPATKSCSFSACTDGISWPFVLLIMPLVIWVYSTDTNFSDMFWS
Description: FIG. 11 a-d. rPKAc phosphorylates rhPDE3A and increases its interactions rSERCA2. A. Schemes representing PDE3A1 [NHR1: trans-membrane domain (obligatory membrane insertion domain); NHR2: membrane association domain; CCR: conserved C-terminal catalytic region; P1-4: predicted PKA phosphorylation sites; rhPDE3A and truncated mutants (PDE3A2, PDE3A-A510, PDE3A-RD), and rSERCA2 (1042 amino acids, 3-77 cation transporter N-terminal; 93-341, E1-E2 ATPase; 345-724, haloacid dehydrogenase like hydrolase; 819-991, cation transporter ATPase C-terminus). B. Putative PKA phosphorylation sites of PDE3A designated with asterisks. C-D. Purified rSERCA2 (150 ng) (Abnova) and 50 units of Flag-tagged rhPDE3A1 truncated mutants [rhPDE3A2, rhPDE3A-A510, and similarly expressed rhPDE3A-RD (aa 146-484)](FIG. 11D) or mutants lacking the PKA putative phosphorylation site mutants of rhPDE3A1 [Ser292/293A (M1), S312A (M2), S428A (M3), S438A (M4), S292A/293A/312A/438A (M5)](FIG. 11C) were incubated with or without 50 units of rPKAc at 30° C. for 30 min and 5 mM MgCl2 in phosphorylation buffer. Proteins were immunoprecipitated with anti-Flag antibodies and immunoblotted with anti-SERCA2 (upper panel), or anti-Flag (middle panel). Lower panel: input control (SERCA2). Shown are representative blots from three independent experiments. (RD: regulatory domain; AA: amino acid).
Flag-tagged rhPDE3A1 and its phosphorylation site mutants [rhPDE3A1-S292A/293A (M1), rhPDE3A1-S312A (M2), rhPDE3A1-S428A (M3), rhPDE3A1-S438A (M4), rhPDE3A1-S292A/293A/312A/438A (M5) open reading frame [accession #NP_000912] was synthesized by Genscript, Inc (Piscataway, N.J.), subcloned into pAcSG2 baculoviral expression vector. Flag-tagged rhPDE3A variants and phosphorylation site mutants were expressed in SF21 cells [(10-20)×106 SF21 cells/75-cm2 flask] as described (19,20). SF21 cells were harvested, sedimented (10 min, 1000×g, 4° C.), washed twice with ice-cold PBS, resuspended, homogenized (in a Dounce homogenizer) in buffer B and sonicated […]. A comparison of the translated sequences of human AKAP18γ (AC NP_057461 and AK300587; 348 aa residues) and rat AKAP18δ (3) (AC QJP77; 352 aa residues) indicate that eight of the first twelve aa residues of human AKAP18γ and rat AKAP18δ are identical, and that the proteins are homologous (˜74% aa identity). SF21 cell extracts, which contained his-tagged-rAKAP18δ, were prepared as described above. Flag-tagged rhPDE3A1 (usually 50 arbitrary (u) units) was incubated (30 min, 30° C.) with rAKAP18δ (200 μl, containing 50 ng of recombinant protein), with or without different concentrations of rPKAc (final volume, 300 μl) in buffer B containing 2 mM DTT and 200 μM ATP. Reactions were stopped by dilution of reaction mixtures to 1.0 ml with buffer B containing 1 mg/ml SF21 cell lysates, and cleared as described above (cf ‘Immunoprecipitation and immunoblotting’ subsection). His-tagged rAKAP18δ was immunoprecipitated with anti-his Mab Mag-beads (Genscript). Anti-his Mab Mag beads-bound immunoprecipitates were washed, collected, and anti-his Mab Mag-beads-bound proteins were eluted by boiling in Laemmli's SDS buffer (100 μl) and samples (15 μl) of immunoprecipitated proteins as well as of reaction mixtures (‘input proteins’) were immunoblotted with indicated antibodies as described above.

| Molecule | cellular hypertrophy [1] | phosphorylation of PLB at S16 by endogenous PKA (PLB) | PKA-stimulated (phosphorylation-dependent) interaction with SERCA2 (rSERCA2) | further results |
| --- | --- | --- | --- | --- |
| CN(C(=O)CCCOc1ccc2[nH]c(=O)ccc2c1)C1CCCCC1 [cilostamide] | promote myocyte hypertrophy | stimulated | – | effect on cAMP-increased ATP-dependent, oxalate-supported Ca2+ uptake (SR vesicles): potentiated |
| COc1ccc(C2CNC(=O)C2)cc1OC1CCCC1 (centres unmarked) [rolipram] | – | no effect | – | – |
| B1 | did not induce cellular hypertrophy | – | – | hypertrophic response to norepinephrine ([1]; neonatal rat ventricular myocytes transfected with construct, norepinephrine): blocked the hypertrophic response to norepinephrine |
| B2 | – | – | slightly decreased | – |
| B3 | – | – | had no effect | – |
